Data set [1] concerns aspartate aminotransferase. The following applies: off-target enzyme, prior art; cited from earlier work.
In a further data set the test system is GABA-AT. The following applies: cited from earlier work.
The next data set concerns CYP3A. Description: Inhibition of microsomal cytochromes P450: CYP3A. Format: in vitro ADME, human. The following applies: HLM, midazolam and testosterone substrates, 10 μM, 10 min at 37° C. How it is done: (§1) Inhibition of Microsomal Cytochromes P450. The experiments were performed by Eurofins Panlabs (Redmond, Wash. 98052, USA). CYP1A inhibition (HLM, phenacetin substrate), CYP2B6 inhibition (HLM, bupropion substrate), CYP2C8 inhibition (HLM, paclitaxel substrate), CYP2C9 inhibition (HLM, diclofenac substrate), CYP2C19 inhibition (HLM, omeprazole substrate), CYP2D6 inhibition (HLM, dextromethorphan substrate), and CYP3A inhibition (HLM, midazolam and testosterone substrates) were tested. The test concentration was 10 μM. The incubation time was 10 min at 37° C. The detection method was by HPLC-MS/MS. The experiments were duplicated, and the % inhibition of the control values was averaged (FIG. 10).

In a further data set the target is CYP2C19 (Homo sapiens (Human), UniProt P33261). Nature of the data set: Inhibition of microsomal cytochromes P450: CYP2C19. Type of data set: in vitro ADME. The following applies: HLM, omeprazole substrate, 10 μM, 10 min at 37° C. How it is done: as §1
The nature of data set [2]: Metabolic stability in human liver microsomes. The following applies: over 60 minutes, 0.1 μM, 37° C., LC-MS/MS. Format: in vitro ADME. As to the method:
Measurement of the metabolic stability in HLM was accomplished by incubating 17 with the microsomes and monitoring its disappearance with time using LC-MS/MS. Imipramine, propranolol, terfenadine, and verapamil were run in similar condition as controls. […] Metabolic Stability in Human Liver Microsomes. The experiments were performed by Eurofins Panlabs (Redmond, Wash. 98052, USA). The test concentration of 17 was 0.1 μM. […] The detection method was by LC-MS/MS. Imipramine, propranolol, terfenadine, and verapamil were run in similar condition as controls.
In general terms: Liver microsomes are vesicles of endoplasmic reticulum, rich in cytochrome P450 enzymes.

A further data set deals with CYP2C8 (Homo sapiens (Human), UniProt P10632). Nature of the data set: Inhibition of microsomal cytochromes P450: CYP2C8. The following applies: HLM, paclitaxel substrate, 10 μM, 10 min at 37° C. Type of data set: in vitro ADME. As to the method:
as §1

The next data set deals with hERG channel (Homo sapiens (Human), UniProt Q12809). Nature of the data set: Inhibition of the hERG channel, automated whole-cell patch clamp. Format: cell-based. The following applies: hERG CHO-K1 cell line; 0.1 μM, 1 μM, 10 μM; 5 min at room temperature. How it is done: Inhibition of the hERG Channel. The experiments were performed by Eurofins Panlabs (Redmond, Wash. 98052, USA). hERG CHO-K1 cell line was used. The test concentrations were 0.1 μM, 1 μM, and 10 μM. The incubation time was 5 min at room temperature, cumulatively. The detection method used an automated whole-cell patch clamp. The experiments were duplicated, and the % inhibition of the tail current was averaged (FIG. 9).
For orientation: Block of hERG is tested as a sign of cardiac risk.

The target in the next data set is CYP2B6 (Homo sapiens (Human), UniProt P20813). Description: Inhibition of microsomal cytochromes P450: CYP2B6. Type of data set: in vitro ADME. The following applies: HLM, bupropion substrate, 10 μM, 10 min at 37° C. As to the method: as §1
A further data set addresses CYP2D6 (Homo sapiens (Human), UniProt P10635). Nature of the data set: Inhibition of microsomal cytochromes P450: CYP2D6. Format: in vitro ADME. The following applies: HLM, dextromethorphan substrate, 10 μM, 10 min at 37° C. As to the method: as §1
The test system of another data set is CYP1A. Nature of the data set: Inhibition of microsomal cytochromes P450: CYP1A. Format: in vitro ADME, human. The following applies: HLM, phenacetin substrate, 10 μM, 10 min at 37° C. As to the method: as §1
The next data set addresses CYP2C9 (Homo sapiens (Human), UniProt P11712). Nature of the data set: Inhibition of microsomal cytochromes P450: CYP2C9. The following applies: HLM, diclofenac substrate, 10 μM, 10 min at 37° C. Type of data set: in vitro ADME. How it is done: as §1
The subject of data set [3] is multiple-hit rat model of infantile spasms. The following applies: cited from earlier work.
Data set [4] addresses GABA aminotransferase (GABA-AT) (Sus scrofa (Pig), UniProt P80147). Description: Inhibition of GABA-AT, coupled assay with SSDH (IC50 to Ki by Cheng-Prusoff). Type of data set: biochemical. The following applies: competitive inhibitor of GABA-AT. As to the method: GABA-AT was isolated and purified from pig brain by a published procedure.
Inhibition constants were determined by monitoring GABA-AT activity in the presence of 0-50 mM concentrations of synthesized analogues using a coupled assay with the enzyme succinic semialdehyde dehydrogenase (SSDH). The assay solution consisted of 10 mM GABA, 5 mM α ketoglutarate, 1 mM NADP^+, 5 mM β-mercaptoethanol, and excess SSDH in 50 mM potassium pyrophosphate buffer, pH 8.5. Enzyme activity was determined by observing the change in absorbance at 340 nm at 25° C. IC50 values were obtained using non-linear regression in GraphPad Prism5 software. […] (Yung-Chi, C.; Prusoff, W. H. Biochem. Pharmacol. 1973, 22, 3099-3108.)

CYP2C9, sequence (P11712 whole entry): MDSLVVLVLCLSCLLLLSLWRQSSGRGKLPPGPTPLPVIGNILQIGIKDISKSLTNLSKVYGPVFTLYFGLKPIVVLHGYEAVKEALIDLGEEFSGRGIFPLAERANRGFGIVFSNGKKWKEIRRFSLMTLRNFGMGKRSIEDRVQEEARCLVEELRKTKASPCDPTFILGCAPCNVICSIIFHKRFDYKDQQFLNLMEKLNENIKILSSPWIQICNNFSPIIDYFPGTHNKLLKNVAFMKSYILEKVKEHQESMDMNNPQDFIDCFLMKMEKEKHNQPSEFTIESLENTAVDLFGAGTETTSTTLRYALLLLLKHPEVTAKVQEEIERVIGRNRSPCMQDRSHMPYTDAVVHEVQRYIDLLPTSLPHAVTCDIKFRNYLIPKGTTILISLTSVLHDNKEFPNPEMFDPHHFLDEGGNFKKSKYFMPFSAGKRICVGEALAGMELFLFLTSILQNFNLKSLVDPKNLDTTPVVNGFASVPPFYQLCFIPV
GABA aminotransferase (GABA-AT), sequence (P80147 29-500): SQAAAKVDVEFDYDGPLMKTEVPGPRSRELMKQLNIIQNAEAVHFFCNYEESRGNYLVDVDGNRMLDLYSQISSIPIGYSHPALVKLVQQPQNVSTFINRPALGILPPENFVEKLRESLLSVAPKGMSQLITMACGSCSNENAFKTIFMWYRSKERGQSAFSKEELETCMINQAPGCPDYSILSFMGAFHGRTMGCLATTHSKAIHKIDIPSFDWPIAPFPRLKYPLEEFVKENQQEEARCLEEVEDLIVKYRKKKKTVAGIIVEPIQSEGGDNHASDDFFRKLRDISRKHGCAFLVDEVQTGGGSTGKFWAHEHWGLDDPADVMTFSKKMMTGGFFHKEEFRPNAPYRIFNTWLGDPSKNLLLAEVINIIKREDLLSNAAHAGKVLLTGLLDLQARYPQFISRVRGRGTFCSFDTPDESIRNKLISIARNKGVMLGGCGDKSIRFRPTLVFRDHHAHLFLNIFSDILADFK
CYP2C19, sequence (P33261 whole entry): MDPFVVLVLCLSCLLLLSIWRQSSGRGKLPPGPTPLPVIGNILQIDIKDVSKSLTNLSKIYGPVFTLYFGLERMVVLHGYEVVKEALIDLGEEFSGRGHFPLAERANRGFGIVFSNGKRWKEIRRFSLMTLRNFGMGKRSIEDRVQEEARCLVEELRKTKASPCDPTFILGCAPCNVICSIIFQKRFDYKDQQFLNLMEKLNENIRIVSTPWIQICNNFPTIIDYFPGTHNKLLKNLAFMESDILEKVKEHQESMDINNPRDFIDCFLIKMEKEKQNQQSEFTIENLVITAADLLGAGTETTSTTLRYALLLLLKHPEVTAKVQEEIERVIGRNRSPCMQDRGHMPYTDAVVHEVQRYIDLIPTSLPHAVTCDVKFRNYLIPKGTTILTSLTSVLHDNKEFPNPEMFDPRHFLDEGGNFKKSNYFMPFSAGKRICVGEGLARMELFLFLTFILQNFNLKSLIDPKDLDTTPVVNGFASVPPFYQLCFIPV
CYP2B6, sequence (P20813 whole entry): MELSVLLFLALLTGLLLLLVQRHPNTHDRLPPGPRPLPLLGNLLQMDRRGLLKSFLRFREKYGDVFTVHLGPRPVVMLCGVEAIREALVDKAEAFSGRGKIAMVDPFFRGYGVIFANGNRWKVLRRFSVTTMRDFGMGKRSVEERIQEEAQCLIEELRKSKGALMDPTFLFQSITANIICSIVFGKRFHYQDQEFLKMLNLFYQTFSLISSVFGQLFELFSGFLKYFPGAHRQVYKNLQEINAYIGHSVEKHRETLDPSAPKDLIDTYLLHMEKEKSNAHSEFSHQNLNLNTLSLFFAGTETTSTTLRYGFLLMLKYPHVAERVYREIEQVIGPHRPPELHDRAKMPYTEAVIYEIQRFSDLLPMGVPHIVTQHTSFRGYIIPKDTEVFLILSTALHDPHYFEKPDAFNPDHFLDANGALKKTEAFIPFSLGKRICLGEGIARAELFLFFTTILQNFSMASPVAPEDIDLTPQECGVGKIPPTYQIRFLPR
CYP2D6, sequence (P10635 whole entry): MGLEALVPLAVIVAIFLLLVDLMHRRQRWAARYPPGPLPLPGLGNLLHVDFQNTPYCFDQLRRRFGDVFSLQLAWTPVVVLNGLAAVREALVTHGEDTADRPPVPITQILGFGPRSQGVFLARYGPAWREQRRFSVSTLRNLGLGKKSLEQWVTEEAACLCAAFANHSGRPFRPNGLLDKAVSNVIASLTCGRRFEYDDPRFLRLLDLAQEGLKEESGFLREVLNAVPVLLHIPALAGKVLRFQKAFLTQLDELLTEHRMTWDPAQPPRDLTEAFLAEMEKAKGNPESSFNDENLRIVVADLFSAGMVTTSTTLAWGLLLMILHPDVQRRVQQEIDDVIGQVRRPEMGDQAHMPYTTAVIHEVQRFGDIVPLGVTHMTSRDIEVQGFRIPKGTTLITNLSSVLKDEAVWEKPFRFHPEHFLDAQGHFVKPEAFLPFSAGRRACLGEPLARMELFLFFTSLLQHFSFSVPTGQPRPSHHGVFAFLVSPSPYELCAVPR
hERG channel, sequence (Q12809 whole entry): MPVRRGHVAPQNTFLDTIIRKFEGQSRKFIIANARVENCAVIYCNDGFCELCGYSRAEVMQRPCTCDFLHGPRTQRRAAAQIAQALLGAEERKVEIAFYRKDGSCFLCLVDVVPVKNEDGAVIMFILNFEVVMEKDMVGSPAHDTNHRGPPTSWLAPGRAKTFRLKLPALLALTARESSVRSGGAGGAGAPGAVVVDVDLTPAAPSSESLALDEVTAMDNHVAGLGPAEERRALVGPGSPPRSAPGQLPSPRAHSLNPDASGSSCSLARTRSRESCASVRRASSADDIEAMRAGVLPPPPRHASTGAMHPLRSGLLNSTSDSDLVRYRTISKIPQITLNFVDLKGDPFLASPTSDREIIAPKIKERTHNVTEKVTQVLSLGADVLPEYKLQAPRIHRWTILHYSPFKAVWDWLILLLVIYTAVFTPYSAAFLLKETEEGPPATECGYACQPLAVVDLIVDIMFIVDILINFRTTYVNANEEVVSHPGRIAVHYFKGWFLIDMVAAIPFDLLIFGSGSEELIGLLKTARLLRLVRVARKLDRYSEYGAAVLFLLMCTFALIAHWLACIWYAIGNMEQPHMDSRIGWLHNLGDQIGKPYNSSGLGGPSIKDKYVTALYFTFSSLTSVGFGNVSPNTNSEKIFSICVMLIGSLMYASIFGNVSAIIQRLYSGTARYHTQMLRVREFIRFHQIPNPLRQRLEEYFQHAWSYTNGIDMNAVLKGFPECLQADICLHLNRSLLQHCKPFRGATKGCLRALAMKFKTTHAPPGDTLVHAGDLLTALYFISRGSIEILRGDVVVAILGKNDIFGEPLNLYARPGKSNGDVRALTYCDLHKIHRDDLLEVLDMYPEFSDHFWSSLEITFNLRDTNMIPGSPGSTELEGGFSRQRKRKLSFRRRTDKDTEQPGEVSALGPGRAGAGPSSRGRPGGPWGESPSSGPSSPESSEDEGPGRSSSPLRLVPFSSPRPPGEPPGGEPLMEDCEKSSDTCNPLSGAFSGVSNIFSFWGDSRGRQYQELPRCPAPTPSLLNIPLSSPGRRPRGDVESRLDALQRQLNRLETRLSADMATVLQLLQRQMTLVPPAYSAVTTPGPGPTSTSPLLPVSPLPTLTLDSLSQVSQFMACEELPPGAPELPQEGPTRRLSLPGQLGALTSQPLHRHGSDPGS
CYP2C8, sequence (P10632 whole entry): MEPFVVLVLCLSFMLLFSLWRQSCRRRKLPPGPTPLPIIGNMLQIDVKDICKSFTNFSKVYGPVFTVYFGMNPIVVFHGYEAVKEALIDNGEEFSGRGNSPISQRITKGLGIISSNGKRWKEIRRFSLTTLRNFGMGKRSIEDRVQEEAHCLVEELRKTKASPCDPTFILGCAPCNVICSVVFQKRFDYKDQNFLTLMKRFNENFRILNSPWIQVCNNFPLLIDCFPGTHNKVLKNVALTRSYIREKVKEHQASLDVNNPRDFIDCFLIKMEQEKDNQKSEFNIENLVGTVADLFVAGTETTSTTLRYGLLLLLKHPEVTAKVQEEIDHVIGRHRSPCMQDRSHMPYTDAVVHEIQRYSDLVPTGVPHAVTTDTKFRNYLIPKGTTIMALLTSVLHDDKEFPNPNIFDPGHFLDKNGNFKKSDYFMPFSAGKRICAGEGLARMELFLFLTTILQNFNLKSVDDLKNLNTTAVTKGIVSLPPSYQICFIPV

Consider `N[C@H]1C=C(C(=O)O)SC1` [(S)-4-Amino-4,5-dihydro-2-thiophenecarboxylic acid], for which the “inactivation or inhibition of aspartate aminotransferase” value in data set [1] is “inactivator of aspartate aminotransferase”. Further, the “inactivation of GABA-AT (in words, prior art)” value in the data set with GABA-AT is “known inactivator of GABA-AT”.
For `Cl.N[C@@H]1CS[C@H](C(=O)O)C1` [Compound 17, (2S,4S)-4-Aminotetrahydrothiophene-2-carboxylic acid hydrochloride], the CYP3A inhibition entry in the data set with CYP3A is given as “did not inhibit or induce”. Besides, at CYP2C19, the CYP2C19 inhibition result is recorded as “did not inhibit or induce”. Also, in data set [2], the “metabolized in HLM” value is “less than 20%”. On CYP2C8, the CYP2C8 inhibition entry was “did not inhibit or induce”. Further, at hERG channel, the “inhibition of the hERG channel (tail current)” value is recorded as “did not inhibit”. The CYP2B6 inhibition entry on CYP2B6 is given as “did not inhibit or induce”. The CYP2D6 inhibition entry at CYP2D6 was “did not inhibit or induce”. For the same molecule, the CYP1A inhibition entry with CYP1A was “did not inhibit or induce”. Moreover, the CYP2C9 inhibition entry at CYP2C9 is recorded as “did not inhibit or induce”.
On to `C=CC(N)CCC(=O)O` (stereo not shown) [vigabatrin], for which the “time spasms suppression stayed effective” value in data set [3] is 1 days.
In general, Ki refers to the dissociation constant of the complex between target and ligand, obtained from inhibition or displacement. Read a high Ki as weaker binding. Regarding “(2S,4S)-4-aminotetrahydrofuran-2-carboxylic acid (40) and (2R,4R)-4-aminotetrahydrofuran-2-carboxylic acid (51) [mixture of enantiomers 40 and 51]”, in data set [4], the affinity corresponds to a Ki of 430 µM.

Source of the values: patent US10800753B2, “Tetrahydrothiophene-based GABA aminotransferase inactivators and analogs thereof for treating neurological disorders” (Northwestern University, priority 2015, dated 2020).
